Laboratory results as given in article PMC11210663 (Emerging Infectious Diseases, 2024).
“Also recorded” adds a separate entry of the source.

Experiments:
[1] = test system: influenza A(H1N1)pdm09 virus isolates with NA-I223V + S247N; assay type: biochemical
[2] = test system: influenza A(H1N1)pdm09 virus isolates with NA-S247N; assay type: biochemical
[3] = test system: influenza A(H1N1)pdm09 virus isolates with NA-I223V; assay type: biochemical
[4] = test system: influenza A(H1N1)pdm09 virus isolates with NA-I223V; assay type: cell-based
[5] = test system: influenza A(H1N1)pdm09 virus isolates with NA-S247N; assay type: cell-based
[6] = test system: influenza A(H1N1)pdm09 virus isolates with NA-I223V + S247N; assay type: cell-based
[7] = read-out: NA inhibitors IC50, average ± SD

SMILES: CCOC(=O)C1=C[C@@H](OC(CC)CC)[C@H](NC(C)=O)[C@@H](N)C1 [Oseltamivir, oseltamivir]
- susceptibility to antiviral drugs [1]: reduced susceptibility

SMILES: CCC(CC)[C@H](NC(C)=O)[C@@H]1[C@H](O)[C@@H](C(=O)O)C[C@H]1N=C(N)N [Peramivir, peramivir]
- NA inhibitors IC50 fold change [2]: 0.19 ± 0.01 (3) fold
- IC50 [2, 7]: 0.19 nM
- NA inhibitors IC50 fold change [3]: 0.08 ± 0.01 (1) fold
- IC50 [3, 7]: 0.08 nM
- NA inhibitors IC50 fold change [1]: 0.29 ± 0.01 (4) fold
- IC50 [1, 7]: 0.29 nM

SMILES: O=C1c2c(O)c(=O)ccn2N([C@@H]2c3ccccc3SCc3c2ccc(F)c3F)[C@@H]2COCCN12 [baloxavir]
- susceptibility to baloxavir [4]: susceptible
- susceptibility to baloxavir [5]: susceptible
- susceptibility to baloxavir [6]: retained susceptibility; also recorded: susceptible
